Values quoted from earlier work, collected in US20250311721A1, “UREA COMPLEXES OF ACTIVE INGREDIENTS” (priority 2022, published 2025).

Structure (SMILES): O=C(NCCc1ncc(C(F)(F)F)cc1Cl)c1ccccc1C(F)(F)F [Fluopyram]
- solubility in DMSO (DMSO): > 250 mg/mL
- solubility in ethyl acetate (ethyl acetate): > 250 mg/mL
